Measurements from patent publication US8541460B2, “PDK-1/Akt signaling inhibitors” (The Ohio State University, priority 2003, dated 2013).

Tests used:
SK-OV-3 = test: NCI DTP cell line screen (SRB), Ovarian Cancer; type: cell-based, human
Protocol: (§1) Screening of compounds 70 and 71 against several cancer cell lines The human tumor cell lines of the cancer screening panel are grown in RPMI 1640 medium containing 5% fetal bovine serum and 2 mM L-glutamine. For a typical screening experiment, cells are inoculated into 96 well microtiter plates in 100 μL at plating densities ranging from 5,000 to 40,000 cells/well depending on the doubling time of individual cell lines. After cell inoculation, the microtiter plates are incubated at 37° C., 5% CO2, 95% air and 100% relative humidity for 24 h prior to addition of experimental drugs.
(§2) After 24 h, two plates of each cell line are fixed in situ with TCA, to represent a measurement of the cell population for each cell line at the time of drug addition (Tz). Experimental drugs are solubilized in dimethyl sulfoxide at 400-fold the desired final maximum test concentration and stored frozen prior to use. At the time of drug addition, an aliquot of frozen concentrate is thawed and diluted to twice the desired final maximum test concentration with complete medium containing 50 μg/ml gentamicin. Additional four, 10-fold or ½ log serial dilutions are made to provide a total of five drug concentrations plus control. Aliquots of 100 μl of these different drug dilutions are added to the appropriate microtiter wells already containing 100 μl of medium, resulting in the required final drug concentrations.
(§3) Following drug addition, the plates are incubated for an additional 48 h at 37° C., 5% CO2, 95% air, and 100% relative humidity. For adherent cells, the assay is terminated by the addition of cold TCA. Cells are fixed in situ by the gentle addition of 50 μl of cold 50% (w/v) TCA (final concentration, 10% TCA) and incubated for 60 minutes at 4° C. The supernatant is discarded, and the plates are washed five times with tap water and air dried. Sulforhodamine B (SRB) solution (100 μl) at 0.4% (w/v) in 1% acetic acid is added to each well, and plates are incubated for 10 minutes at room temperature. After staining, unbound dye is removed by washing five times with 1% acetic acid and the plates are air dried. Bound stain is subsequently solubilized with 10 mM trizma base, and the absorbance is read on an automated plate reader at a wavelength of 515 nm. For suspension cells, the methodology is the same except that the assay is terminated by fixing settled cells at the bottom of the wells by gently adding 50 μl of 80% TCA (final concentration, 16% TCA). Using the seven absorbance measurements [time zero, (Tz), control growth, (C), and test growth in the presence of drug at the five concentration levels (Ti)], the percentage growth is calculated at each of the drug concentrations levels. Percentage growth inhibition is calculated as: [(Ti−Tz)/(C−Tz)]×100 for concentrations for which Ti>/=Tz [(Ti−Tz)/Tz]×100 for concentrations for which Ti<Tz
(§4) Three dose response parameters are calculated for each experimental agent. […] The drug concentration resulting in total growth inhibition (TGI) is calculated from Ti=Tz. […] Values are calculated for each of these three parameters if the level of activity is reached; however, if the effect is not reached or is exceeded, the value for that parameter is expressed as greater or less than the maximum or minimum concentration tested.
(§5) The methods described were used to test compounds 70 and 71 on a panel of sixty cell lines under a screening service provided by the Developmental Therapeutics Program at the National Institutes of Health. Shown in FIG. 1C are 1, RPMI-8226 leukemia cells; 2; NCI-H322M non-small cell lung cancer cells; 3, HT29 colon cancer cells; 4, U251 CNS cancer cells; 5, SK-MEL-28 melanoma cancer cells; 6, SK-OV-3 ovarian cancer cells; 7, RXF 393 renal cancer cells; 8, PC-3 prostate cancer cells; 9, MDA-MB-231 breast cancer cells.

IGROV1 = test: NCI DTP cell line screen (SRB), Ovarian Cancer; type: cell-based
Protocol: as §1, §2, §3, §4, §5

OVCAR-8 = test: NCI DTP cell line screen (SRB), Ovarian Cancer; type: cell-based; conditions: OVCAR 8
Protocol: as §1, §2, §3, §4, §5

MALME-3M = test: NCI DTP cell line screen (SRB), Melanoma; type: cell-based
LOX IMVI = test: NCI DTP cell line screen (SRB), Melanoma; type: cell-based
Protocol: as §1, §2, §3, §4, §5

M14 = test: NCI DTP cell line screen (SRB), Melanoma; type: cell-based
Protocol: as §1, §2, §3, §4, §5

SK-MEL-2 = test: NCI DTP cell line screen (SRB), Melanoma; type: cell-based
Protocol: as §1, §2, §3, §4, §5

SK-MEL-28 = test: NCI DTP cell line screen (SRB), Melanoma; type: cell-based
Protocol: as §1, §2, §3, §4, §5

COX-2 = COX-2 (Homo sapiens, UniProt P35354); test: COX-2 inhibitory activity; type: biochemical; conditions: concentrations up to 50 μM
[1] = read-out: LC50 (the source's name)

Sequence of COX-2 (P35354 18-604): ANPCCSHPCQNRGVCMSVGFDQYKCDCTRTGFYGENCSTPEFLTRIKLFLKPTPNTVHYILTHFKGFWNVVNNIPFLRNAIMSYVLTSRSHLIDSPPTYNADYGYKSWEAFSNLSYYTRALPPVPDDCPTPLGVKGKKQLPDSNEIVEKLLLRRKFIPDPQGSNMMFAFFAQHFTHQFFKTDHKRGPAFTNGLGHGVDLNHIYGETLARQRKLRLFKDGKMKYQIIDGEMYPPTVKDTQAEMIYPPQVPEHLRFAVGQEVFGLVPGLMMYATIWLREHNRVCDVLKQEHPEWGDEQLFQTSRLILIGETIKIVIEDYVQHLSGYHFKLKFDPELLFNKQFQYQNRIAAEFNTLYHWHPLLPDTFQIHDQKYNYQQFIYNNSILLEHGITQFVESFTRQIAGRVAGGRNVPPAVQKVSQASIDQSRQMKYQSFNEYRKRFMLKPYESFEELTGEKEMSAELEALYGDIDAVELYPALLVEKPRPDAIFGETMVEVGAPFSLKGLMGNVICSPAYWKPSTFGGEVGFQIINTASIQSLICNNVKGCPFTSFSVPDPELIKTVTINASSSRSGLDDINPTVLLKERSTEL

## N=C(N)Nc1ccc(-n2nc(C(F)(F)F)cc2-c2ccc3c(ccc4ccccc43)c2)cc1 [Compound 71, 4-[5-(2-Phenanthrenyl)-3-(trifluoromethyl)-1H-pyrazol-1-yl]-phenyl-guanidine]
SK-OV-3
  GI50: 1430 nM
  TGI: 2.94E−06
SK-OV-3; Log10 Concentration −4.0
  Mean Optical Densities: 0.278
  Percent Growth: −30%
SK-OV-3; Log10 Concentration −5.0
  Mean Optical Densities: 0.062
  Percent Growth: −85%
SK-OV-3; Log10 Concentration −6.0
  Mean Optical Densities: 1.093
  Percent Growth: 75%
SK-OV-3; Log10 Concentration −7.0
  Mean Optical Densities: 1.245
  Percent Growth: 91%
SK-OV-3; Log10 Concentration −8.0
  Mean Optical Densities: 1.261
  Percent Growth: 93%
IGROV1
  GI50: 1070 nM
  TGI: 2.26E−06
IGROV1; Log10 Concentration −4.0
  Mean Optical Densities: 0.216
  Percent Growth: −53%
IGROV1; Log10 Concentration −5.0
  Mean Optical Densities: −0.039
  Percent Growth: −100%
IGROV1; Log10 Concentration −6.0
  Mean Optical Densities: 0.806
  Percent Growth: 55%
IGROV1; Log10 Concentration −7.0
  Mean Optical Densities: 0.983
  Percent Growth: 83%
IGROV1; Log10 Concentration −8.0
  Mean Optical Densities: 0.997
  Percent Growth: 85%
IGROV1; [1]
  CC50: 4750 nM
OVCAR-8
  GI50: 1690 nM
  TGI: 3.05E−06
OVCAR-8; Log10 Concentration −4.0
  Mean Optical Densities: 0.126
  Percent Growth: −69%
OVCAR-8; Log10 Concentration −5.0
  Mean Optical Densities: −0.001
  Percent Growth: −100%
OVCAR-8; Log10 Concentration −6.0
  Mean Optical Densities: 0.934
  Percent Growth: 94%
OVCAR-8; Log10 Concentration −7.0
  Mean Optical Densities: 0.946
  Percent Growth: 96%
OVCAR-8; Log10 Concentration −8.0
  Mean Optical Densities: 0.923
  Percent Growth: 92%
OVCAR-8; [1]
  CC50: 5520 nM
MALME-3M
  GI50: 1010 nM
  TGI: 2.33E−06
MALME-3M; Log10 Concentration −4.0
  Mean Optical Densities: 0.333
  Percent Growth: −50%
MALME-3M; Log10 Concentration −5.0
  Mean Optical Densities: 0.089
  Percent Growth: −87%
MALME-3M; Log10 Concentration −6.0
  Mean Optical Densities: 0.826
  Percent Growth: 50%
MALME-3M; Log10 Concentration −7.0
  Mean Optical Densities: 0.838
  Percent Growth: 54%
MALME-3M; Log10 Concentration −8.0
  Mean Optical Densities: 0.832
  Percent Growth: 52%
MALME-3M; [1]
  CC50: 100000 nM
LOX IMVI
  GI50: 1340 nM
  TGI: 2.65E−06
LOX IMVI; Log10 Concentration −4.0
  Mean Optical Densities: 0.165
  Percent Growth: −53%
LOX IMVI; Log10 Concentration −5.0
  Mean Optical Densities: 0.008
  Percent Growth: −98%
LOX IMVI; Log10 Concentration −6.0
  Mean Optical Densities: 0.935
  Percent Growth: 72%
LOX IMVI; Log10 Concentration −7.0
  Mean Optical Densities: 1.033
  Percent Growth: 84%
LOX IMVI; Log10 Concentration −8.0
  Mean Optical Densities: 0.948
  Percent Growth: 73%
LOX IMVI; [1]
  CC50: 5220 nM
M14
  GI50: 1480 nM
  TGI: 2.80E−06
M14; Log10 Concentration −4.0
  Mean Optical Densities: 0.210
  Percent Growth: −33%
M14; Log10 Concentration −5.0
  Mean Optical Densities: −0.004
  Percent Growth: −100%
M14; Log10 Concentration −6.0
  Mean Optical Densities: 0.816
  Percent Growth: 81%
M14; Log10 Concentration −7.0
  Mean Optical Densities: 0.823
  Percent Growth: 82%
M14; Log10 Concentration −8.0
  Mean Optical Densities: 0.772
  Percent Growth: 74%
SK-MEL-2
  GI50: 1570 nM
  TGI: 2.91E−06
SK-MEL-2; Log10 Concentration −4.0
  Mean Optical Densities: 0.324
  Percent Growth: −29%
SK-MEL-2; Log10 Concentration −5.0
  Mean Optical Densities: −0.010
  Percent Growth: −100%
SK-MEL-2; Log10 Concentration −6.0
  Mean Optical Densities: 0.780
  Percent Growth: 87%
SK-MEL-2; Log10 Concentration −7.0
  Mean Optical Densities: 0.819
  Percent Growth: 97%
SK-MEL-2; Log10 Concentration −8.0
  Mean Optical Densities: 0.775
  Percent Growth: 85%
SK-MEL-28
  GI50: 1560 nM
  TGI: 2.89E−06
SK-MEL-28; Log10 Concentration −4.0
  Mean Optical Densities: 0.248
  Percent Growth: −53%
SK-MEL-28; Log10 Concentration −5.0
  Mean Optical Densities: −0.002
  Percent Growth: −100%
SK-MEL-28; Log10 Concentration −6.0
  Mean Optical Densities: 1.367
  Percent Growth: 86%
SK-MEL-28; Log10 Concentration −7.0
  Mean Optical Densities: 1.408
  Percent Growth: 90%
SK-MEL-28; Log10 Concentration −8.0
  Mean Optical Densities: 1.439
  Percent Growth: 93%
COX-2
  COX-2 inhibitory activity: nor was any measurable COX-2 inhibitory activity detected
